# Assay results from patent US12692223B2, “Phenyl-sulfamoyl-benzoic acid derivatives as ERAP1-modulators” (GREY WOLF THERAPEUTICS LIMITED, priority 2021, dated 2026).
# Target: T1, ERAP1 (Homo sapiens, UniProt Q9NZ08)
# T1 construct: Purified ERAP1(37-941)-10His (ERAP1)
# Assay: ERAP1 mediated hydrolysis of an amide substrate measured in a biochemical system (10-mer inhibition assay)
# Settings: purified ERAP1(37-941)-10His; 10-mer substrate; 23° C. for 1 h; excitation 279 nm, emission 355 nm; read-out: IC50 vs Decapeptide WRVYEKC(Dnp)ALK-acid (where Dnp is Dinitrophenyl maleimide) (10-mer)
# Summary of the method: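 Purified ERAP1(37-941)-10His in 25 mM Bis-tris propane, 0.05% HPMC, pH 7.75, with compound, then 100 μM 10-mer WRVYEKC(Dnp)ALK or 240 μM L-AMC added (stock concentrations before 1:1 mixing), 1 h at 23 °C. Fluorescence read at ex 279/em 355 nm (10-mer) or ex 365/em 442 nm (L-AMC); IC50 from 4-parameter fit.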
# T1 sequence (Q9NZ08 37-941): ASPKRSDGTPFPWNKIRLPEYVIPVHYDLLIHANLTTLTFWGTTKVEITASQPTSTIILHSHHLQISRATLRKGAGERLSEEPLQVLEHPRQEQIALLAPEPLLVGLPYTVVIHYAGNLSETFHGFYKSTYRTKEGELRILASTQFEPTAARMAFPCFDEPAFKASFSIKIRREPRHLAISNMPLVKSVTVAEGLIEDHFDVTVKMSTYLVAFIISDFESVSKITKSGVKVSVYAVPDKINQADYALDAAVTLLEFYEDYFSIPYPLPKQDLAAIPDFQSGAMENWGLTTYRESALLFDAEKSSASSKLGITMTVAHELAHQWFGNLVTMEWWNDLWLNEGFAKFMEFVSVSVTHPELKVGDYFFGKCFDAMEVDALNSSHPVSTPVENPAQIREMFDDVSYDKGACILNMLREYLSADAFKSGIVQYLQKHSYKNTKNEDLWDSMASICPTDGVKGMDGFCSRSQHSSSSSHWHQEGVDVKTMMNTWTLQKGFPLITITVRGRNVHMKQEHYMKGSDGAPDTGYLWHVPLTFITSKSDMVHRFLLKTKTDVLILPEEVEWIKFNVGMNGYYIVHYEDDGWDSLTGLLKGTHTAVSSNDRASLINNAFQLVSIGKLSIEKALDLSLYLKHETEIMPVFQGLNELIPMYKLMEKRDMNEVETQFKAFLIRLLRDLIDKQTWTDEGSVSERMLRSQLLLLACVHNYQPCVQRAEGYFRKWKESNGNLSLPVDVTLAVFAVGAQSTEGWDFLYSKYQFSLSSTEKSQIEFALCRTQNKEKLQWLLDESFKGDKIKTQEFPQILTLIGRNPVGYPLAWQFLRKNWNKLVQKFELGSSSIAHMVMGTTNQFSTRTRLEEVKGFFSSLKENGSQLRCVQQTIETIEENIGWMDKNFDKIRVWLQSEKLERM
row,Structure (SMILES),IC50 [nM]
1,"N#Cc1cc(NS(=O)(=O)c2cc(C(=O)O)ccc2C2CC2)c(OC2CC3(CCC3)C2)cc1Cl [Example 39, 3-(N-(4-chloro-5-cyano-2-(spiro[3.3]heptan-2-yloxy)phenyl)sulfamoyl)-4-cyclopropylbenzoic acid]",1 to 5
2,"N#Cc1cc(NS(=O)(=O)c2cc(C(=O)O)ccc2C2CC2)c(O[C@H]2C[C@H](C(F)(F)F)C2)cc1Cl [Example 40, 3-(N-(4-chloro-5-cyano-2-((trans)−3-(trifluoromethyl)cyclobutoxy)phenyl)sulfamoyl)-4-cyclopropylbenzoic acid]",1 to 5
3,"N#Cc1cc(NS(=O)(=O)c2cc(C(=O)O)ccc2C2CC2)c(O[C@@H]2C[C@@H]3C[C@@H]3C2)cc1Cl [Example 41, Cis-3-(N-(2-(bicyclo[3.1.0]hexan-3-yloxy)− 4-chloro-5-cyanophenyl)sulfamoyl)-4-cyclopropylbenzoic acid]",< 1
4,"CC(Oc1cc(Cl)c(C#N)cc1NS(=O)(=O)c1cc(C(=O)O)ccc1C1CC1)C1CCC1 (stereo not shown) [Example 42, 3-(N-(4-chloro-5-cyano-2-(1-cyclobutylethoxy)phenyl)sulfamoyl)-4-cyclopropylbenzoic acid]",< 1
5,"N#Cc1cc(NS(=O)(=O)c2cc(C(=O)O)ccc2C2CC2)c(OCC2CNC2)cc1Cl [Example 43, 3-(N-(2-(azetidin-3-ylmethoxy)-4-chloro-5-cyanophenyl)sulfamoyl)-4-cyclopropylbenzoic acid]",> 5
6,"N#Cc1cc(NS(=O)(=O)c2cc(C(=O)O)ccc2C2CC2)c(OCC2CCCC2)cc1Cl [Example 44, 3-(N-(4-chloro-5-cyano-2-(cyclopentylmethoxy)phenyl)sulfamoyl)-4-cyclopropylbenzoic acid]",< 1
7,"CC(Oc1cc(Cl)c(C#N)cc1NS(=O)(=O)c1cc(C(=O)O)ccc1C1CC1)C1COC1 (stereo not shown) [Example 45, 3-(N-(4-chloro-5-cyano-2-(1-(oxetan-3-yl)ethoxy)phenyl)sulfamoyl)-4-cyclopropylbenzoic acid]",1 to 5
8,"CO[C@H]1C[C@H](COc2cc(Cl)c(C#N)cc2NS(=O)(=O)c2cc(C(=O)O)ccc2C2CC2)C1 [Example 46, 3-(N-(4-chloro-5-cyano-2-((trans-3-methoxycyclobutyl)methoxy)phenyl)sulfamoyl)-4-cyclopropylbenzoic acid]",1 to 5
9,"CO[C@H]1C[C@@H](COc2cc(Cl)c(C#N)cc2NS(=O)(=O)c2cc(C(=O)O)ccc2C2CC2)C1 [Example 47, 3-(N-(4-chloro-5-cyano-2-((cis-3-methoxycyclobutyl)methoxy)phenyl)sulfamoyl)-4-cyclopropylbenzoic acid]",< 1
10,"N#Cc1cc(NS(=O)(=O)c2cc(C(=O)O)ccc2C2CC2)c(O[C@@H]2CCOC2)cc1Cl [Example 48, (R)-3-(N-(4-chloro-5-cyano-2-((tetrahydrofuran-3-yl)oxy)phenyl)sulfamoyl)-4-cyclopropylbenzoic acid]",< 1
11,"N#Cc1cc(NS(=O)(=O)c2cc(C(=O)O)ccc2C2CC2)c(O[C@H]2CCOC2)cc1Cl [Example 49, (S)-3-(N-(4-chloro-5-cyano-2-((tetrahydrofuran-3-yl)oxy)phenyl)sulfamoyl)-4-cyclopropylbenzoic acid]",1 to 5
12,"O=C(O)c1ccc(C2CC2)c(S(=O)(=O)Nc2cc(-c3ccns3)c(Cl)cc2OC2CC(F)(F)C2)c1 [Example 50, 3-(N-(4-chloro-2-(3,3-difluorocyclobutoxy)-5-(isothiazol-5-yl)phenyl)sulfamoyl)-4-cyclopropylbenzoic acid]",< 1
13,"O=C(O)c1ccc(C2CC2)c(S(=O)(=O)Nc2cc(-c3ccns3)c(Cl)cc2OC2CCC2)c1 [Example 51, 3-(N-(4-chloro-2-cyclobutoxy-5-(isothiazol-5-yl)phenyl)sulfamoyl)-4-cyclopropylbenzoic acid]",< 1
14,"N#Cc1cc(NS(=O)(=O)c2cc(C(=O)O)ccc2C2CC2)c(OC2CC3(COC3)C2)cc1Cl [Example 52, 3-(N-(2-((2-oxaspiro[3.3]heptan-6-yl)oxy)-4-chloro-5-cyanophenyl)sulfamoyl)-4-cyclopropylbenzoic acid]",> 5
15,"N#Cc1cc(NS(=O)(=O)c2cc(C(=O)O)ccc2C2CC2)c(O[C@H]2C[C@@H](C#N)C2)cc1Cl [Example 53, 3-(N-(4-chloro-5-cyano-2-(cis-3-cyanocyclobutoxy)phenyl)sulfamoyl)-4-cyclopropylbenzoic acid]",1 to 5
16,"C#CC1(Oc2cc(Cl)c(C#N)cc2NS(=O)(=O)c2cc(C(=O)O)ccc2C2CC2)CCC1 [Example 54, 3-(N-(4-chloro-5-cyano-2-(1-ethynylcyclobutoxy)phenyl)sulfamoyl)-4-cyclopropylbenzoic acid]",1 to 5
17,"N#Cc1cc(NS(=O)(=O)c2cc(C(=O)O)ccc2C2CC2)c(O[C@H]2C[C@H](C#N)C2)cc1Cl [Example 55, 3-(N-(4-chloro-5-cyano-2-(trans-3-cyanocyclobutoxy)phenyl)sulfamoyl)-4-cyclopropylbenzoic acid]",1 to 5

row,Structure (SMILES),IC50 [nM]
1,"N#Cc1cc(NS(=O)(=O)c2cc(C(=O)O)ccc2C2CC2)c(OC2CCC23CC3)cc1Cl (stereo not shown) [Example 56, 3-(N-(4-chloro-5-cyano-2-(spiro[2.3]hexan-4-yloxy)phenyl)sulfamoyl)-4-cyclopropylbenzoic acid]",< 1
2,"CC1(C)CCC[C@@H]1Oc1cc(Cl)c(C#N)cc1NS(=O)(=O)c1cc(C(=O)O)ccc1C1CC1 [Example 57, (S)−3-(N-(4-chloro-5-cyano-2-((2,2-dimethylcyclopentyl)oxy)phenyl)sulfamoyl)-4-cyclopropylbenzoic acid]",< 1
3,"N#Cc1cc(NS(=O)(=O)c2cc(C(=O)O)ccc2C2CC2)c(OCC2(F)CCC2)cc1Cl [Example 58, 3-(N-(4-chloro-5-cyano-2-((1-fluorocyclobutyl)methoxy)phenyl)sulfamoyl)-4-cyclopropylbenzoic acid]",< 1
4,"Cc1oncc1-c1cc(NS(=O)(=O)c2cc(C(=O)O)ccc2C2CC2)c(OC2CCC2)cc1Cl [Example 60, 3-(N-(4-chloro-2-cyclobutoxy-5-(5-methylisoxazol-4-yl)phenyl)sulfamoyl)-4-cyclopropylbenzoic acid]",< 1
5,"Cc1oncc1-c1cc(NS(=O)(=O)c2cc(C(=O)O)ccc2C2CC2)c(OC2CC(F)(F)C2)cc1Cl [Example 61, 3-(N-(4-chloro-2-(3,3-difluorocyclobutoxy)-5-(5-methylisoxazol-4-yl)phenyl)sulfamoyl)-4-cyclopropylbenzoic acid]",< 1
6,"CC1(Oc2cc(Cl)c(C#N)cc2NS(=O)(=O)c2cc(C(=O)O)ccc2C2CC2)CCC1 [Example 62, 3-(N-(4-chloro-5-cyano-2-(1-methylcyclobutoxy)phenyl)sulfamoyl)-4-cyclopropylbenzoic acid]",< 1
7,"CC1(C)CCC[C@H]1Oc1cc(Cl)c(C#N)cc1NS(=O)(=O)c1cc(C(=O)O)ccc1C1CC1 [Example 63, (R)-3-(N-(4-chloro-5-cyano-2-((2,2-dimethylcyclopentyl)oxy)phenyl)sulfamoyl)-4-cyclopropylbenzoic acid]",< 1
8,"N#Cc1cc(NS(=O)(=O)c2cc(C(=O)O)ccc2C2CC2)c(OC2CCC3(CC3)C2)cc1Cl (stereo not shown) [Example 64, 3-(N-(4-chloro-5-cyano-2-(spiro[2.4]heptan-5-yloxy)phenyl)sulfamoyl)-4-cyclopropylbenzoic acid]",< 1
9,"N#Cc1cc(NS(=O)(=O)c2cc(C(=O)O)ccc2C2CC2)c(OCC23COC(C2)C3)cc1Cl [Example 65, 3-(N-(2-((2-oxabicyclo[2.1.1]hexan-4-yl)methoxy)-4-chloro-5-cyanophenyl)sulfamoyl)-4-cyclopropylbenzoic acid]",1 to 5
10,"N#Cc1cc(NS(=O)(=O)c2cc(C(=O)O)ccc2C2CC2)c(OC2COC2)cc1Cl [Example 66, 3-(N-(4-chloro-5-cyano-2-(oxetan-3-yloxy)phenyl)sulfamoyl)-4-cyclopropylbenzoic acid]",> 5
11,"N#Cc1cc(NS(=O)(=O)c2c(C3CC3)ccc(C(=O)O)c2F)c(OC2CCCC2)cc1Cl [Example 67, 3-(N-(4-chloro-5-cyano-2-(cyclopentyloxy)phenyl)sulfamoyl)-4-cyclopropyl-2-fluorobenzoic acid]",> 5
12,"CO[C@H]1C[C@@H](Oc2cc(Cl)c(C#N)cc2NS(=O)(=O)c2cc(C(=O)O)ccc2C2CC2)C1 [Example 68, 3-(N-(4-chloro-5-cyano-2-(cis-3-methoxycyclobutoxy)phenyl)sulfamoyl)-4-cyclopropylbenzoic acid]",1 to 5
13,"N#Cc1cc(NS(=O)(=O)c2cc(C(=O)O)ccc2C2CC2)c(OC2CCCC23CC3)cc1Cl (stereo not shown) [Example 69, 3-(N-(4-chloro-5-cyano-2-(spiro[2.4]heptan-4-yloxy)phenyl)sulfamoyl)-4-cyclopropylbenzoic acid]",< 1
14,"C[C@H](Oc1cc(Cl)c(C#N)cc1NS(=O)(=O)c1cc(C(=O)O)ccc1C1CC1)C1CCC1 [Example 70, (S)-3-(N-(4-chloro-5-cyano-2-(1-cyclobutylethoxy)phenyl)sulfamoyl)-4-cyclopropylbenzoic acid]",< 1
15,"N#Cc1cc(NS(=O)(=O)c2cc(C(=O)O)ccc2C2CC2)c(O[C@H]2C[C@@H](F)C2)cc1Cl [Example 71, 3-(N-(4-chloro-5-cyano-2-(cis-3-fluorocyclobutoxy)phenyl)sulfamoyl)-4-cyclopropylbenzoic acid]",< 1
16,"N#Cc1cc(NS(=O)(=O)c2cc(C(=O)O)ccc2C2CC2)c(O[C@@H]2CCC[C@@H]2F)cc1Cl [Example 73, 3-(N-(4-chloro-5-cyano-2-(((1R,2S)-2-fluorocyclopentyl)oxy)phenyl)sulfamoyl)-4-cyclopropylbenzoic acid]",< 1
17,"CC1(C)CC(COc2cc(Cl)c(C#N)cc2NS(=O)(=O)c2cc(C(=O)O)ccc2C2CC2)C1 [Example 75, 3-(N-(4-chloro-5-cyano-2-((3,3-dimethylcyclobutyl)methoxy)phenyl)sulfamoyl)-4-cyclopropylbenzoic acid]",1 to 5
